Molecules are shown by their SMILES.

A short description of the first data set: in vitro. The settings on record: rat, gh3-tre-luc cells, AC50 (uM) modified / 1000.
`CC1=C(CC=O)C(C)(C)CCC1` [2,6,6-Trimethyl-1-cyclohexene-1-acetaldehyde]: the CC50 – broadly, the concentration at which the toxic effect on the cells reaches its halfway point – at 24 h is greater than 90 µM.

`CC1=CC(=O)CC(C)(C)C1=O` [2,6,6-Trimethyl-2-cyclohexene-1,4-dione]: the CC50 at 24 h was greater than 90 µM.

`CC(C)CC(C)CC(O)CC(C)C` (stereo not shown) [2,6,8-Trimethyl-4-nonanol] showed a CC50 at 24 h greater than 90 µM.

With `CC(C)CC(=O)CC(C)CC(C)C` (stereo not shown) [2,6,8-Trimethyl-4-nonanone], the CC50 at 24 h is greater than 90 µM.

As to `CN(C)CCCN(C)CCCN(C)C` [2,6,10-Trimethyl-2,6,10-triazaundecane], the CC50 at 24 h was greater than 90 µM.

`CC(C)(C)C1=CC(=O)C=C(C(C)(C)C)C1=O` [2,6-Bis-(1,1-dimethylethyl)-2,5-cyclohexadiene-1,4-dione]: the CC50 at 24 h is greater than 90 µM.

For the compound `CCC(C)c1cccc(C(C)CC)c1O` (stereo not shown) [2,6-Di(butan-2-yl)phenol], the midpoint of cytotoxicity, the CC50 at 24 h, lay at 72.2 µM.

The compound `CN(C)Cc1cc(C(C)(C)C)c(O)c(C(C)(C)C)c1` [2,6-Di-tert-butyl-4-[(dimethylamino)methyl]phenol] yielded a CC50 at 24 h of 50.7 µM.

With `COc1cc(C(C)(C)C)c(O)c(C(C)(C)C)c1` [2,6-Di-tert-butyl-4-methoxyphenol], the midpoint of cytotoxicity, the CC50 at 24 h, lay at 48.1 µM.

`CC(C)(C)c1cccc(C(C)(C)C)c1O` [2,6-Di-tert-butylphenol] gave a CC50 at 24 h greater than 90 µM.

`Nc1cccc(N)n1` [2,6-Diaminopyridine]: the CC50 at 24 h was greater than 90 µM.

As to `Nc1cc(Cl)c(N)c(Cl)c1` [2,6-Dichloro-1,4-benzenediamine], the CC50 at 24 h was greater than 90 µM.

With `Cc1ccc(Cl)c(N)c1Cl` [2,6-Dichloro-3-methylaniline], the CC50 at 24 h was greater than 90 µM.

`O=Cc1c(Cl)cccc1Cl` [2,6-Dichlorobenzaldehyde] had a CC50 at 24 h greater than 90 µM.

The compound `NC(=O)c1c(Cl)cccc1Cl` [2,6-Dichlorobenzamide] registered a CC50 at 24 h greater than 90 µM.

For `O=S(=O)(Cl)c1c(Cl)cccc1Cl` [2,6-Dichlorobenzenesulfonylchloride], the CC50 at 24 h is greater than 90 µM.

In the case of `O=C(O)c1c(Cl)cccc1Cl` [2,6-Dichlorobenzoic acid], the CC50 at 24 h was greater than 90 µM.

`O=C(Cl)c1c(Cl)cccc1Cl` [2,6-Dichlorobenzoyl chloride]: the CC50 at 24 h was greater than 90 µM.

Compound `Oc1c(Cl)cccc1Cl` [2,6-Dichlorophenol] had a CC50 at 24 h greater than 90 µM.

`Cc1c(Cl)cccc1Cl` [2,6-Dichlorotoluene] gave a CC50 at 24 h greater than 90 µM.

The compound `CCc1cccc(CC)c1N` [2,6-Diethylaniline] had a CC50 at 24 h greater than 90 µM.

On to `N#Cc1c(F)cccc1F` [2,6-Difluorobenzonitrile], for which the CC50 at 24 h was greater than 90 µM.

In turn, `O=[N+]([O-])c1cc(I)c(O)c(I)c1` [2,6-Diiodo-4-nitrophenol] displayed a CC50 at 24 h of 24.5 µM.

For the compound `CC(C)c1cccc(C(C)C)c1N` [2,6-Diisopropylaniline], the CC50 at 24 h is greater than 90 µM.

Compound `CC(C)c1ccc2cc(C(C)C)ccc2c1` [2,6-Diisopropylnaphthalene] gave a CC50 at 24 h greater than 90 µM.

With `COc1cccc(OC)c1C(=O)O` [2,6-Dimethoxybenzoic acid], the CC50 at 24 h is greater than 90 µM.

In turn, `C/C=C(C)/C=C/C=C(C)C` [2,6-Dimethyl-2,4,6-octatriene] showed a CC50 at 24 h greater than 90 µM.

The compound `CC(C)CCCC(C)(C)O` [2,6-Dimethyl-2-heptanol] registered a CC50 at 24 h greater than 90 µM.

`CC(C)CC(O)CC(C)C` [2,6-Dimethyl-4-heptanol] showed a CC50 at 24 h greater than 90 µM.

In turn, `Cc1cccc(C)c1N` [2,6-Dimethylaniline] returned a CC50 at 24 h greater than 90 µM.

`CC(C)=CCCC(C)C=O` (stereo not shown) [2,6-Dimethylhept-5-enal] gave a CC50 at 24 h greater than 90 µM.

As to `CCC(C)CCCC(C)(C)O` (stereo not shown) [2,6-Dimethyloctan-2-ol], the CC50 at 24 h was greater than 90 µM.

The data set is the same for the next values; noted with them: rat, gh3-tre-luc cells, AC50 (uM) modified / 1000, Tox21_110001=Tox21_200260; viability, 1 nM T3 present, 24 h.
Compound `Cc1ccc2cc(C)ccc2c1` [2,6-Dimethylnaphthalene] registered a CC50 at 24 h greater than 90 µM.

The data set is the same for the next values; noted with them: rat, gh3-tre-luc cells, AC50 (uM) modified / 1000, Tox21_110001=Tox21_301750; viability, 1 nM T3 present, 24 h.
Compound `CC(C)(C)c1cc([N+](=O)[O-])cc(C(C)(C)C)c1O` [2,6-Di-tert-butyl-4-nitrophenol] displayed a CC50 at 24 h of 11 µM.

Source of the values: publication PMC6792352, “Limited Chemical Structural Diversity Found to Modulate Thyroid Hormone Receptor in the Tox21 Chemical Library” (Environmental Health Perspectives, 2019).
